Measured values as given in US20130084322A1, “DRUG-IMPREGNATED BIODEGRADABLE STENT AND METHODS OF MAKING THE SAME” (Tim Wu, priority 2010, published 2013).
Entries after “also recorded” stand apart in the source; their conditions may differ.

Tests used:
[1] = HPLC analysis of paclitaxel in the formed tube/stent (stability to extrusion); format: physicochemical; settings: extraction in 50% ethanol and 50% methanol overnight at room temperature; FIG. 2
Protocol: The 10 μl extracting solutions were further analyzed by HPLC (HP16 series 1090, Hewlett-Packard Co. Palo Alto, Calif.). The samples were analyzed on a C18-reverse phase column (HP: 4.6×100 mm RP18) using a mobile phase consisting of 0.005% TFA buffer (0.05 ml Trifluoroacetic acid in 1000 ml acetonitrile) delivered at a flow rate of 1.0 mL/min.

[2] = after releasing from stent; through specific binding to binding proteins; cited from earlier work

Compound: CC(=O)O[C@H]1C(=O)[C@@]2(C)[C@H]([C@H](OC(=O)c3ccccc3)[C@]3(O)C[C@H](OC(=O)[C@H](O)[C@@H](NC(=O)c4ccccc4)c4ccccc4)C(C)=C1C3(C)C)[C@]1(OC(C)=O)CO[C@@H]1C[C@@H]2O [paclitaxel]
- stability of paclitaxel during extrusion (HPLC peaks, pre-extrusion vs stent samples) [1]: not decomposed during extrusion; also recorded: survived the elevated extrusion temperature and are stable inside the stent strut

Compound: CO[C@H]1C[C@@H]2CC[C@@H](C)[C@@](O)(O2)C(=O)C(=O)N2CCCC[C@H]2C(=O)O[C@H]([C@H](C)C[C@@H]2CC[C@@H](O)[C@H](OC)C2)CC(=O)[C@H](C)/C=C(\C)[C@@H](O)[C@@H](OC)C(=O)[C@H](C)C[C@H](C)/C=C/C=C/C=C/1C [sirolimus]
- retention in blood vessel wall [2]: up to three days
